Source: US20060160905A1, “Compositions and methods for inhibiting pain” (priority 2005, published 2006)

Tested on: acetic acid-induced visceral pain
Test: acetic acid-induced visceral pain mouse model (writhing/stretch count)
Type: in vivo, mice (male Harlan ICR)
Details: for effect on inhibiting visceral pain (stretches vs. control mice), in words: doses from 0.37 mg/kg to 30.0 mg/kg SC; for number of stretches (writhes) per 30 minutes: 0.75% acetic acid IP half an hour later, control mice typically stretch 65-70 times/30 minutes
Experimental: The acetic acid-induced visceral pain mouse model test is, of course, well known to those skilled in the art and is described in the seminal paper by Collier et al [Collier, H. O. J., L. C. Dinneen, C. A. Johnson and C. Schneider 1968. The abdominal constriction response and its suppression by analgesic drugs in the mouse.
The drugs are identified below as Monoamine #1-6. Five groups of five mice (male Harlan ICR, weight 35-50 g) were used to test each of the drugs. Control animals were tested as part of each experiment as well. The mice in each group were weighed and identified with a tail marking and were given a single dose of one of the drugs at 1 ml/100 g SC. The first group served as controls and was given only saline; the other five groups were given a drug at five doses ranging from 0.37 mg/kg up to 30.0 mg/kg. After the drug was administered, the mice were allowed to acclimate for one-half hour and were then given an IP injection of 0.75% Glacial acetic acid at a volume of 1 ml/100 g. Once the acid was injected, the mice were put into individual clear containers for observation. The mice were then watched continuously for one-half hour and the number of “stretches” or writhes were counted. The animal was considered to be stretching when its front legs stepped forward and at least one hind leg was extended out behind them. At the end of the thirty-minute observational period the mice were sacrificed with CO2. The same procedure was followed for all of the different compounds examined.

## CCCCCCNC1CCCCC1 [Monoamine #6, N-hexylcyclohexanamine]
  effect on inhibiting visceral pain (stretches vs. control mice), in words: not effective against visceral pain
Listed as #6
  effect on inhibiting visceral pain (stretches vs. control mice), in words: little/no effect

## CCNCCCCC1CCCCC1 [Monoamine #5, N-(4-cyclohexylbutyl)-N-ethylamine]
  effect on inhibiting visceral pain (stretches vs. control mice), in words: significantly fewer stretches than the control mice
Listed as #5
  effect on inhibiting visceral pain (stretches vs. control mice), in words: effective at all of the doses tested

## CCNCCCc1ccccc1O.Cl [Monoamine #2]
30 mg/kg SC single dose
  number of stretches (writhes) per 30 minutes: 47.7±22.4 stretches/30 minutes
  effect on inhibiting visceral pain (stretches vs. control mice), in words: only a minimal effect on inhibiting visceral pain
Listed as #2
  effect on inhibiting visceral pain (stretches vs. control mice), in words: little/no effect

## CCN(CCCc1ccccc1O)Cc1ccccc1.CS(=O)(=O)O [Monoamine #4]
  effect on inhibiting visceral pain (stretches vs. control mice), in words: not effective against visceral pain
Listed as #4
  effect on inhibiting visceral pain (stretches vs. control mice), in words: little/no effect

## CCNCCc1ccccc1O.Cl [Monoamine #1, 2-[2-(Ethylamino)ethyl]phenol Hydrochloride]
10 mg/kg SC single dose
  number of stretches (writhes) per 30 minutes: 25.9±14.8 stretches/30 minutes
30 mg/kg SC single dose
  number of stretches (writhes) per 30 minutes: 13.1±11.7 stretches/30 minutes
Hydrochloride
  effect on inhibiting visceral pain (stretches vs. control mice), in words: statistical significance at all doses tested
Listed as #1, Hydrochloride
  effect on inhibiting visceral pain (stretches vs. control mice), in words: effective at all of the doses tested

## CCNCCCCc1ccccc1O [Monoamine #3]
  effect on inhibiting visceral pain (stretches vs. control mice), in words: significantly fewer stretches than the control mice
Listed as #3
  effect on inhibiting visceral pain (stretches vs. control mice), in words: effective at all of the doses tested
